Data on 59 compounds can be found in the METLIN SMRT retention time set (Domingo-Almenara et al. 2019).

This data set is described as follows: gradient 5% acetonitrile 3 min, to 50% in 2 min, to 85% in 15 min, held 3 min, 100 µL/min. The following applies: column: Zorbax Extend-C18 2.1 x 50 mm; eluents: water / acetonitrile, 0.1% formic acid. In outline:
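Over 3 months, pure standards in mixtures of ~100 molecules were run by HPLC coupled to a quadrupole time-of-flight mass spectrometer in positive and negative ionization mode. The column was a Zorbax Extend-C18 (2.1 × 50 mm, 1.8 μm) at 100 μL/min, eluted with water and acetonitrile each holding 0.1% formic acid, with 40 μL dead and 900 μL dwell volumes. Retention time was determined from adduct peaks chosen by software and checked manually.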
`Cc1ccc(N2CCC(NC(=O)c3ccc(C(F)(F)F)cc3)C2=O)cc1` (centres undefined) registered an RP-LC retention time of 953 s.

Take `COc1ccc(S(=O)(=O)Cc2nc(-c3cccc(Br)c3)no2)cc1`: the RP-LC retention time came out at 1090 s.

Compound `O=C(c1cc2c(s1)CCCC2)N1CCCN(c2nnc3ccc(Cl)cn23)CC1` came in with an RP-LC retention time of 863 s.

Compound `CCOC(=O)Cc1cc(=O)oc2cc(O)cc(O)c12` showed an RP-LC retention time of 660 s.

`NC(=O)CCC(NC(=O)Cc1ccccc1)C(=O)O` (centres undefined) registered an RP-LC retention time of 594 s.

Turning to `CCCOC(=O)C1=C(C)NC2=C(C(=O)C(C(=O)OC)C(C)C2)C1c1cccc(F)c1` (centres undefined), the RP-LC retention time was 994 s.

Regarding `CS(=O)(=O)N1CCC(C(=O)NCc2csc(-c3cccs3)n2)CC1`, the RP-LC retention time is 694 s.

For `Cn1c(=O)n(C)c2cc(S(=O)(=O)c3ccc(F)cc3)c(NC(=O)Cc3cccs3)cc21`, the RP-LC retention time is 790 s.

`CCn1cc(S(=O)(=O)N2CCCCC2CCn2cc(-c3ccccc3)nn2)cn1` (centres undefined) showed an RP-LC retention time of 804 s.

Consider `Cc1cccn2cc(-c3cccc(S(=O)(=O)N4CC(C)CC(C)C4)c3)nc12` (centres undefined), for which the RP-LC retention time is 828 s.

Compound `Cc1cnc(C2CCC2)n1CCNC(=O)C1(c2ccccc2)CC1` yielded an RP-LC retention time of 654 s.

Turning to `CC(C)CCNC(=O)C1CCCN(S(=O)(=O)c2ccc3nc(-c4ccccc4)[nH]c3c2)C1` (centres undefined), the RP-LC retention time worked out at 841 s.

`CN1CCN(CCCNC(=O)Cn2c(=O)c3cccn3c3ccc(F)cc32)CC1` gave an RP-LC retention time of 589 s.

`COc1nc2ccccc2nc1N1CCCC(C(=O)Nc2ccc(Br)c(C)c2C)C1` (centres undefined) showed an RP-LC retention time of 1260 s.

For the compound `CC1CCN(C(=O)C2CCc3sc(C(=O)N4CCCC4)cc3C2)CC1` (centres undefined), the RP-LC retention time turned out to be 843 s.

Compound `CC(C)(C)c1ccc(OCC(O)CN2CCN(C(=O)c3ccccc3)CC2)cc1` (centres undefined) displayed an RP-LC retention time of 608 s.

Take `COc1ccc(CC(=O)NCC2CCC(c3nc4ccccc4n3C)CC2)cc1` (centres undefined): the RP-LC retention time worked out at 579 s.

For the compound `O=C(Nc1ccc2c(c1)OCO2)C1CCN(C(=O)C2Sc3ccccc3NC2=O)CC1` (centres undefined), the RP-LC retention time stood at 736 s.

As to `O=C(NC1CC(=O)N(C2CC2)C1)c1ccc(Cl)s1` (centres undefined), the RP-LC retention time is 639 s.

`COc1ccccc1NC(=O)N1CCN(Cc2nc3cc(Cl)ccc3o2)CC1`: the RP-LC retention time amounted to 771 s.

`CCCN(C)C(=O)c1cc2c(s1)N(CCC)CCCC2` registered an RP-LC retention time of 1170 s.

On to `CC(=O)NCc1nc(-c2ccccc2Cl)no1`, for which the RP-LC retention time came out at 673 s.

Consider `CCn1cc(-c2nc(CC(=O)Nc3ccc(F)c(C)c3)cs2)c2cccnc21`, for which the RP-LC retention time is 902 s.

As for `CCN1CCN(CCNC(=O)C2CCCN(S(=O)(=O)c3ccc4c(ccn4CC)c3)C2)CC1` (centres undefined), the RP-LC retention time is 626 s.

Compound `O=C1CCN(S(=O)(=O)c2ccccc2)CCCN(C(=O)C2(c3ccccc3)CC2)CCN1` showed an RP-LC retention time of 758 s.

`O=C(Nc1ccccc1Cl)N1CCC(N2CCN(Cc3ccccc3)C(=O)C2=O)CC1`: the RP-LC retention time turned out to be 867 s.

Regarding `CCc1noc(NC(C)=O)c1-c1ccc(C)c(S(=O)(=O)Nc2ccc(C)c(F)c2)c1`, the RP-LC retention time worked out at 856 s.

With `O=S(=O)(Nc1ccc(F)cc1F)c1c[nH]c2ncccc12`, the RP-LC retention time is 722 s.

As for `Cn1cc(-c2cc3n(n2)CCCN3C(=O)CCC(=O)NCCN2CCOCC2)c2ccccc21`, the RP-LC retention time is 618 s.

Turning to `COC(=O)c1ccc(Cl)cc1NC(=O)N1CCN(C)c2ncccc21`, the RP-LC retention time came to 700 s.

`Cc1ccc(-c2csc(NC(=O)CN3C(=O)COc4ccc(Cl)cc43)n2)cc1` returned an RP-LC retention time of 1070 s.

For `CC1CCCCN1CCCNC(=O)CCCn1c(=O)c2cccn2c2ccc(Br)cc21` (centres undefined), the RP-LC retention time was determined as 674 s.

Regarding `COc1ccc(-c2nnc(-c3ccccc3)o2)cc1S(=O)(=O)N1CCCC1`, the RP-LC retention time was found to be 908 s.

Consider `Fc1ccc(-c2nc(-c3ccc(-n4ccnc4)nc3)no2)cc1`, for which the RP-LC retention time worked out at 732 s.

On to `CCOC(=O)c1cccc(NC2=NS(=O)(=O)C(c3ccc(F)cc3)=C2C)c1`, for which the RP-LC retention time is 927 s.

As for `CCn1cnc2ccc(C(=O)NC3CC3)cc2c1=O`, the RP-LC retention time was found to be 714 s.

`CCc1cc(=O)n(CC(=O)Nc2cccc(Cl)c2)c(N2CCOCC2)n1`: the RP-LC retention time is 788 s.

Take `COc1cccc(C(=O)N2C[C@@H]3C[C@H]2C[C@@H]3NC(=O)c2cccs2)c1OC`: the RP-LC retention time worked out at 698 s.

Consider `COc1cccc(S(=O)(=O)N2CCC(c3noc(-c4cccc(F)c4)n3)CC2)c1`, for which the RP-LC retention time is 1110 s.

In the case of `O=C(NC1CCCCC1)c1ccc2ccnc(N3CCN(c4ccc(F)cc4)CC3)c2c1`, the RP-LC retention time came to 908 s.

As to `COC(=O)c1ccc(NC(=O)C2CCCN(S(=O)(=O)c3cc(-c4noc(C)n4)cs3)C2)cc1` (centres undefined), the RP-LC retention time is 984 s.

In the case of `Cc1cccc2c(=O)n(C3CCN(C(=O)Nc4ccc(F)cc4)CC3)cnc12`, the RP-LC retention time was 765 s.

Turning to `O=C(NCc1ccccn1)C1CC(=O)N(c2n[nH]c3cc(Br)ccc23)C1` (centres undefined), the RP-LC retention time worked out at 600 s.

`CCCn1ccc2oc(C)c(C(=O)NCc3ccccc3Br)c2c1=O` displayed an RP-LC retention time of 1110 s.

In turn, `Cc1nn(CC(=O)NCCCN(C)C2CCCCC2)c(=O)c2nn(-c3ccccc3)c(C)c12` showed an RP-LC retention time of 634 s.

In turn, `CCn1cc(-c2nc(-c3ccc(OCC(C)C)cc3)no2)c(=O)c2cc(F)c(N3CCOCC3)cc21` had an RP-LC retention time of 917 s.

`Cc1cnc(C2CN(Cc3ccccn3)C2)n1CC1CC1` displayed an RP-LC retention time of 538 s.

In the case of `O=S(=O)(c1cccc(-c2nnc(SC/C=C/c3ccccc3)o2)c1)N1CCOCC1`, the RP-LC retention time came out at 980 s.

With `O=C(NCc1ccc(Br)cc1)C1CCN(C(=O)c2cc(-c3ccncc3)n[nH]2)CC1`, the RP-LC retention time amounted to 618 s.

`CN(C)c1cnc(-n2cc(NC(=O)c3cccc(N(C)C)c3)cn2)nc1` showed an RP-LC retention time of 672 s.

The compound `Cc1nnc(C2CC3(CCN(CCc4ccccc4)CC3)CN2CCc2ccccc2)o1` (centres undefined) returned an RP-LC retention time of 666 s.

With `CCN1CCC2(CC1)OC(=O)C(C)=C2C(=O)NCc1ccc(Cl)cc1`, the RP-LC retention time was found to be 643 s.

`COc1ccc(NC(=O)c2cnc(N3CCN(CC(=O)N4CCCC4)CC3)nc2N)cc1` had an RP-LC retention time of 586 s.

The compound `CCc1ccc(C2=C(C)C(N3CCCN(C(=O)C4CCCC4)CC3)=NS2(=O)=O)cc1` came in with an RP-LC retention time of 946 s.

Turning to `CSc1ncccc1C(=O)Nc1ccc2c(c1)CCC(=O)N2`, the RP-LC retention time is 638 s.

For `CCOc1ccc(CNC(=O)c2cn3ccccc3n2)cc1`, the RP-LC retention time was 687 s.

`Cc1ccc(N2CCC(NC(=O)Nc3cccc(C)c3)C2=O)cc1` (centres undefined) returned an RP-LC retention time of 862 s.

The compound `CCC(C)NC(=O)C1CCN(S(=O)(=O)c2c(C)nn(-c3ccc(F)cc3)c2C)CC1` (centres undefined) displayed an RP-LC retention time of 842 s.

`COc1nc2ccccc2nc1N1CCCC(C(=O)Nc2cccc(Br)c2)C1` (centres undefined) returned an RP-LC retention time of 1300 s.
